Experiment [1] addresses Recombinant human Menin protein (2-610) / MLL polypeptide binding (Homo sapiens (Human), UniProt O00255). Put plainly: Menin and MLL protein binding at a molecular level (fluorescence polarization method). To be noted: inhibition of Menin / MLL polypeptide binding. From the text:
Example 3: Determination of the Activity of the Compounds of the Present Invention on Menin and MLL Protein Binding at a Molecular Level (Fluorescence Polarization Method)
1. Reagents, Materials and Instruments:
• Recombinant human Menin protein (2-610): ChemPartner, CP2021020801; • MLL polypeptide (6-FAM-Ahx-SG-40): GL Biochem, 865700; • Trizma® hydrochloride buffer solution (Tris): Sigma, T2194-1 L; • NaCl: Invitrogen, AM9760G; • TCEP: Sigma, 646547; • DMSO: Sigma, D4540; • 384-well plate: Corning, 4514; • Envision: PerkinElmer.
2. Preparation of Reaction Solutions
• 1) Buffer solution: 20 mL of Tris and 4 mL of NaCl were added respectively to 376 mL of ddH2O, with pH adjusted to 7.5, and TCEP was added before testing with a dilution ratio of 1:500. • 2) 5× test compounds: the test compound was subjected to gradient dilution with the buffer solution to 5-fold the reaction concentration, so that the final concentrations of the compound were 1.000, 0.333, 0.111, 0.037, 0.012, 0.004, 0.001 and 0.0005 μM, respectively. • 3) 2.5× Menin protein reaction solution: the Menin protein was diluted to 5 nM with the buffer solution. • 4) 2.5×MLL polypeptide reaction solution: the MLL polypeptide was diluted to 5 nM with the buffer solution.
1) Binding Reaction (20 μL System)
4 μL of 5× test compound was added to each reaction well of the 384-well plate, and the corresponding volume of 10% DMSO was added to the control wells. Except the control wells, 8 μL of Menin protein reaction solution was added to each well. The reaction solution was incubated at room temperature for 30 minutes, and then 8 μL of MLL polypeptide reaction solution was added to each well. The final concentrations of DMSO in the test compound wells and control wells were all 2%. The 384-well plate was sealed and incubated at room temperature for 30 minutes in the dark.
Three control groups were set up: • a blank control group only containing a buffer solution; • a negative control group only containing MLL polypeptide reaction solution; and • a positive control group containing Menin protein reaction solution and MLL polypeptide reaction solution.
The vertical polarization S value and the horizontal polarization P value (excitation wavelength was 480 nm, and emission wavelength was 535 nm) were measured with Envision.
Corrected S is the S value of the negative control group—the S value of the blank control group
Corrected P is the P value of the negative control group—the P value of the blank control group
(§1) • calculated by using software XL-Fit™ (version 5.3) supplied by ID Business Solutions (Guildford, UK), which is an additional software to Microsoft Excel.
A general note: Polarisation of emitted light reports the rotation of a fluorescent probe.

The subject of experiment [2] is MV-4-11 cells (human acute myelogenous leukemia cell line carrying MLL-AF4 mutation). Put plainly: Cell proliferation assay, MV-4-11 (CellTiter-Glo). The format is cell-based. To be noted: Homo sapiens, MV4-11, 72 h. On the procedure: Example 4 Cell Proliferation Assay
MV-4-11 (ATCC, CRL-9591), a human acute myelogenous leukemia cell line carrying MLL-AF4 mutation. Cells were cultured in an IMDM medium containing 10% heat-inactivated fetal bovine serum (HIFBS) and supplemented with 50 μM β-mercaptoethanol.
2. Reagents, Materials and Instruments:
• IMDM culture solution: GIBCO, 12440-053; • HIFBS: GIBCO, 10100-147; • β-mercaptoethanol: Sigma, M3148; • CellTiter-Glo® 2.0 assay kit (CTG): Promega, G9243; • DMSO: Sigma, D4540; • 96-well cell culture plate: Corning, 3903; • Envision: PerkinElmer.
MV-4-11 cells were resuspended in a medium, added to a 96-well plate at a density of 3000 cells/well with a volume of 100 μL/well, and cultured in a cell incubator at 5% CO2 and 37° C. for 4 hours. The test compound subjected to gradient dilution with the medium was added to a cell culture plate, and the final concentrations of the compound were 1.100, 0.367, 0.122, 0.041, 0.014, 0.005, 0.002 and 0.001 μM, respectively. The corresponding volume of DMSO diluent was added to a blank control well, and the final concentrations of DMSO in the experimental group and control group were both 0.1%. The cell plate was placed in a cell incubator at 5% CO2 and 37° C. and cultured for 3 days.
On day 0 and day 3 of the treatment, 50 μL/well CTG reagent was added to the cell plate and shaken at room temperature in the dark for 10 min, and then the chemiluminescence value of each well was measured with Envision.
[formula] • wherein: • luminescence valuetest sample: the chemiluminescence value of a cell well treated with the test compound for 3 days. • luminescence valueday 0: the chemiluminescence value of a cell well at day 0. • luminescence valuecell well: the chemiluminescence value of a cell well not treated with the compound for 3 days.
as §1
In general terms: ATP-based viability assays read luminescence as a measure of living cells.

Where [3] appears, read: MV-4-11 cells, 3 days treatment, CellTiter-Glo, read-out: GI50.

Experimental findings from patent publication US20260055108A1, “TRIAZINE COMPOUNDS AND USES THEREOF” (HUTCHMED LIMITED, priority 2022, published 2026) are described below.

Where two headings read alike, the source gives them in different places.

Sequence of Recombinant human Menin protein (2-610) / MLL polypeptide binding (O00255 2-610): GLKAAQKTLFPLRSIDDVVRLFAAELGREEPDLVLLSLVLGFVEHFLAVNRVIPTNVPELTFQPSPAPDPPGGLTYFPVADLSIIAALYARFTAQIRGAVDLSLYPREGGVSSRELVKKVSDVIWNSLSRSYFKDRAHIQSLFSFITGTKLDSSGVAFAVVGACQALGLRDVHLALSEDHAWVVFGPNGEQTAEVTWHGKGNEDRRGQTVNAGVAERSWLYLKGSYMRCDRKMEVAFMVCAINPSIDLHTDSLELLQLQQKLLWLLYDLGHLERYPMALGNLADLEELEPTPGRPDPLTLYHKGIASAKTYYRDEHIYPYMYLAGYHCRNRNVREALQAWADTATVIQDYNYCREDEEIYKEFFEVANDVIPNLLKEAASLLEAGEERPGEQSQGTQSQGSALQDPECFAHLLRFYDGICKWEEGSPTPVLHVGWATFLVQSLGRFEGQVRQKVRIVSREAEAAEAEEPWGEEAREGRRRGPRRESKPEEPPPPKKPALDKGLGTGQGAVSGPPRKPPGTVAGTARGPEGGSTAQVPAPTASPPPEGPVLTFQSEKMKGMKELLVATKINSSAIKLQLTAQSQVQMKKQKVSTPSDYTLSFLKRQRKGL

A word on the IC50: it is the point on the concentration scale where inhibition reaches its midpoint. The GI50 is the concentration at which growth is held to half of that of the control. On to `CCN(C(=O)c1cc(F)ccc1Oc1nncnc1N1CC2(CCN(CC3CCN(C(=O)N(C)c4ccccn4)CC3)CC2)C1)C(C)C` [Compound 25], for which the IC50 in experiment [1] worked out at 163 nM. The 50% growth inhibitory concentration (GI50) in experiment [2] (setting [3]) is 231 nM.
In the case of `CCN(C(=O)c1cc(F)ccc1Oc1nncnc1N1CC2(CCN(CC3CCN(C(=O)NC4CC4)CC3)CC2)C1)C(C)C` [Compound 26, N-cyclopropyl-4-((2-(6-(2-(ethyl(isopropyl)carbamoyl)-4-fluorophenoxy)-1,2,4-triazin-5-yl)-2,7-diazaspiro[3.5]nonan-7-yl)methyl)piperidine-1-carboxamide], the IC50 in experiment [1] stood at 0.9 nM. Besides, the GI50 in experiment [2] is 7 nM.
Turning to `CCN(C(=O)c1cc(F)ccc1Oc1nncnc1N1CC2(CCN(CC3CCN(C(=O)NC)CC3)CC2)C1)C(C)C` [Compound 27], the IC50 in experiment [1] is 5.3 nM. Besides, the 50% growth inhibitory concentration (GI50) in experiment [2] (setting [3]) is 13 nM.
As to `CCN(C(=O)c1cc(F)ccc1Oc1nncnc1N1CC2(CCN(CC3CCN(C(=O)NC(C)C)CC3)CC2)C1)C(C)C` [Compound 29], the IC50 in experiment [1] turned out to be 2.5 nM. Besides, in experiment [2] (setting [3]), the concentration for 50% growth inhibition (GI50) stood at 15 nM.
In the case of `CCN(C(=O)c1cc(F)ccc1Oc1nncnc1N1CC2(CCN(CC3CCN(C(=O)NC(C)(C)C)CC3)CC2)C1)C(C)C` [Compound 30], in experiment [1], the 50% inhibitory concentration (IC50) amounted to 1.7 nM. The GI50 in experiment [2] (setting [3]) was determined as 5 nM.
As for `O=C(NC1CC1)N1CCC(CN2CCC3(CC2)CN(c2ncnnc2Oc2ccc(F)cc2)C3)CC1` [Compound 31], the IC50 in experiment [1] was determined as 155 nM. Moreover, in experiment [2] (setting [3]), the 50% growth inhibitory concentration (GI50) was found to be 284 nM.
Take `CCN(C(=O)c1cc(F)ccc1Oc1nncnc1N1CC2(CCN(CC3CCN(C(=O)NC4CCC4)CC3)CC2)C1)C(C)C` [Compound 32]: in experiment [1], the IC50 was 1 nM. Besides, in experiment [2] (setting [3]), the GI50 was 4 nM.
`CCN(C(=O)c1cc(F)ccc1Oc1nncnc1N1CC2(CCN(CC3CCN(C(=O)NC4COC4)CC3)CC2)C1)C(C)C` [Compound 33]: in experiment [1], the IC50 amounted to 2.9 nM. Further, the GI50 in experiment [2] (setting [3]) was determined as 18 nM.
With `CCN(C(=O)c1cc(F)ccc1Oc1nncnc1N1CC2(CCN(CC3CCN(C(=O)NCc4ccccc4)CC3)CC2)C1)C(C)C` [Compound 34], in experiment [1], the IC50 came out at 8.1 nM. In addition, the GI50 in experiment [2] (setting [3]) stood at 24 nM.
As for `CCN(C(=O)c1cc(F)ccc1Oc1nncnc1N1CC2(CCN(CC3CCN(C(=O)NCCOC)CC3)CC2)C1)C(C)C` [Compound 35], the IC50 in experiment [1] stood at 10.7 nM. Besides, in experiment [2] (setting [3]), the GI50 was 35 nM.
`CCN(C(=O)c1cc(F)ccc1Oc1nncnc1N1CC2(CCN(CC3CCN(C(=O)Nc4ccccc4F)CC3)CC2)C1)C(C)C` [Compound 36, 4-((2-(6-(2-(ethyl(isopropyl)carbamoyl)-4-fluorophenoxy)-1,2,4-triazin-5-yl)-2,7-diazaspiro[3.5]nonan-7-yl)methyl)-N-(2-fluorophenyl)piperidine-1-carboxamide]: the IC50 in experiment [1] was 4.6 nM. Besides, in experiment [2] (setting [3]), the 50% growth inhibitory concentration (GI50) came out at 16 nM.
With `CCN(C(=O)c1cc(F)ccc1Oc1nncnc1N1CC2(CCN(CC3CCN(C(=O)Nc4ccccn4)CC3)CC2)C1)C(C)C` [Compound 37], in experiment [1], the concentration for half-maximal inhibition (IC50) was found to be 13.7 nM. Moreover, in experiment [2] (setting [3]), the concentration for 50% growth inhibition (GI50) amounted to 23 nM.
With `CCN(C(=O)c1cc(F)ccc1Oc1nncnc1N1CC2(CCN(CC3CCN(c4ccc(C(F)(F)F)nn4)CC3)CC2)C1)C(C)C` [Compound 38, N-ethyl-5-fluoro-N-isopropyl-2-((5-(7-((1-(6-(trifluoromethyl)pyridazin-3-yl)piperidin-4-yl)methyl)-2,7-diazaspiro[3.5]nonan-2-yl)-1,2,4-triazin-6-yl)oxy)benzamide], the IC50 in experiment [1] came to 1.7 nM. For the same molecule, in experiment [2] (setting [3]), the GI50 was determined as 2 nM.
As for `CCN(C(=O)c1cc(F)ccc1Oc1nncnc1N1CC2(CCN(CC3CCN(C[C@@H](O)CC#N)CC3)CC2)C1)C(C)C` [Compound 39], the concentration for half-maximal inhibition (IC50) in experiment [1] is 68.3 nM. In addition, the concentration for 50% growth inhibition (GI50) in experiment [2] (setting [3]) is 97 nM.
Turning to `CCN(C(=O)c1cc(F)ccc1Oc1nncnc1N1CC2(CCN(CC3CCN(c4cnccn4)CC3)CC2)C1)C(C)C` [Compound 40], the 50% inhibitory concentration (IC50) in experiment [1] stood at 11.4 nM. Further, the concentration for 50% growth inhibition (GI50) in experiment [2] (setting [3]) stood at 23 nM.
As for `CCN(C(=O)c1cc(F)ccc1Oc1nncnc1N1CC2(CCN(CC3CCN(c4cnc(Cl)nn4)CC3)CC2)C1)C(C)C` [Compound 41], the IC50 in experiment [1] turned out to be 3.1 nM. The concentration for 50% growth inhibition (GI50) in experiment [2] (setting [3]) came out at 8 nM.
With `CCN(C(=O)c1cc(F)ccc1Oc1nncnc1N1CC2(CCN(CC3CCN(c4ccc(Br)c(=O)n4C)CC3)CC2)C1)C(C)C` [Compound 42], the half-inhibitory concentration (IC50) in experiment [1] worked out at 89.9 nM. For the same molecule, in experiment [2] (setting [3]), the GI50 was found to be 37 nM.
For the molecule `CCN(C(=O)c1cc(F)ccc1Oc1nncnc1N1CC2(CCN(CC3CCN(c4ccc5nccn5n4)CC3)CC2)C1)C(C)C` [Compound 43], the half-maximal inhibitory concentration (IC50) in experiment [1] stood at 6.4 nM. The GI50 in experiment [2] (setting [3]) is 13 nM.
As for `CCN(C(=O)c1cc(F)ccc1Oc1nncnc1N1CC2(CCN(CC3CCN(c4ccc(C5CC5)nn4)CC3)CC2)C1)C(C)C` [Compound 44], the concentration for half-maximal inhibition (IC50) in experiment [1] worked out at 4.3 nM. The GI50 in experiment [2] (setting [3]) turned out to be 14 nM.
For `CCN(C(=O)c1cc(F)ccc1Oc1nncnc1N1CC2(CCN(CC3CCN(c4cc(C(F)(F)F)cnn4)CC3)CC2)C1)C(C)C` [Compound 45], in experiment [1], the IC50 stood at 3.9 nM. For the same molecule, the 50% growth inhibitory concentration (GI50) in experiment [2] (setting [3]) is 7 nM.
With `CCN(C(=O)c1cc(F)ccc1Oc1nncnc1N1CC2(CCN(CC3CCN(c4ccc(Cl)nn4)CC3)CC2)C1)C(C)C` [Compound 46], in experiment [1], the concentration for half-maximal inhibition (IC50) worked out at 1.1 nM. Also, the GI50 in experiment [2] (setting [3]) was determined as 2 nM.
In the case of `CCN(C(=O)c1cc(F)ccc1Oc1nncnc1N1CC2(CCN(CC3CCN(c4ccc(C#N)nn4)CC3)CC2)C1)C(C)C` [Compound 47], the IC50 in experiment [1] is 2.6 nM. In experiment [2] (setting [3]), the GI50 amounted to 3 nM.
`CCN(C(=O)c1cc(F)ccc1Oc1nncnc1N1CC2(CCN(CC3CCN(c4cc(C#N)cnn4)CC3)CC2)C1)C(C)C` [Compound 48]: the IC50 in experiment [1] stood at 4.7 nM. Also, the GI50 in experiment [2] (setting [3]) turned out to be 15 nM.
In the same order, the values of `CCN(C(=O)c1cc(F)ccc1Oc1nncnc1N1CC2(CCN(CC3CCN(c4cnc(C#N)cn4)CC3)CC2)C1)C(C)C` [Compound 49] are 18.5 nM and 24 nM.
For `CCN(C(=O)c1cc(F)ccc1Oc1nncnc1N1CC2(CCN(CC3CCN(c4ccc(C#N)cn4)CC3)CC2)C1)C(C)C` [Compound 50], in that order: 5.4 nM and 7 nM.
Regarding `CCN(C(=O)c1cc(F)ccc1Oc1nncnc1N1CC2(CCN(CC3CCN(c4ccc(C#N)cc4)CC3)CC2)C1)C(C)C` [Compound 51], the half-inhibitory concentration (IC50) in experiment [1] worked out at 6.5 nM. Further, the GI50 in experiment [2] (setting [3]) stood at 9 nM.
In the same order, the values of `CCN(C(=O)c1cc(F)ccc1Oc1nncnc1N1CC2(CCN(CC3CCN(c4cc(C(N)=O)ccn4)CC3)CC2)C1)C(C)C` [Compound 52] are 0.9 nM and 3 nM.
In the same order, the values of `CCN(C(=O)c1cc(F)ccc1Oc1nncnc1N1CC2(CCN(CC3(NCCOC)CC3)CC2)C1)C(C)C` [Compound 53] are 99 nM and 87 nM.
As for `CCN(C(=O)c1cc(F)ccc1Oc1nncnc1N1CC2(CCN(CC3CCN(c4ncccc4C(N)=O)CC3)CC2)C1)C(C)C` [Compound 54], in experiment [1], the IC50 stood at 15.8 nM. Besides, the 50% growth inhibitory concentration (GI50) in experiment [2] (setting [3]) is 21 nM.
